Experimental data published in patent publication US11919892B1, “2-(benzo[d]thiazol-2-yl)-N'-(2-(5-(4-chlorophenyl)-1,3,4-oxadiazol-2-ylthio)acetoxy)acetimidamide as an antimicrobial compound” (KING FAISAL UNIVERSITY, priority 2023, dated 2024).

How the values were obtained:
[1] = tested on: Bacillus Cereus; test: Agar plate disc-diffusion, antibacterial, Bacillus cereus; format: cell-based; settings: nutrient agar, 37° C., 48 hours
Description: (§1) The agar plate disc-diffusion method was applied. Sterilized filter papers (6 mm in diameter) were wetted with 10 μL of a solution of 2-(benzo[d]thiazol-2-yl)-N′-(2-(5-(4-chlorophenyl)-1, 3,4-oxadiazol-2-ylthio)acetoxy)acetimidamide (3) to be tested, containing 10 mg/mL in DMSO, and the discs were allowed to air dry. The discs were then placed onto the surface of agar plates (nutrient agar for bacteria and Sabouraud's dextrose agar for fungi) seeded with the test organism. Each plate contained 15 mL of the agar medium, previously seeded with 0.2 mL of the broth culture of each organism pregrown for 18 hours. The plates were incubated at 37° C. for 48 hours and 72 hours for fungi. The inhibition zones were measured in mm. Discs impregnated with DMSO were used as a control, and their inhibition zone was subtracted from the tested compound's actual inhibition zone.

[2] = tested on: Staphylococcus aureus; test: Agar plate disc-diffusion, antibacterial, Staphylococcus aureus; format: cell-based; settings: nutrient agar, 37° C., 48 hours
Description: as §1

[3] = tested on: Pseudomonas aeruginosa; test: Agar plate disc-diffusion, antibacterial, Pseudomonas aeruginosa; format: cell-based; settings: nutrient agar, 37° C., 48 hours
Description: as §1

[4] = tested on: Escherichia coli; test: Agar plate disc-diffusion, antibacterial, Escherichia coli; format: cell-based; settings: nutrient agar, 37° C., 48 hours
Description: as §1

[5] = tested on: Aspergillus flavus; test: Agar plate disc-diffusion, antifungal, Aspergillus flavus; format: cell-based; settings: Sabouraud's dextrose agar, 72 hours
Description: as §1

[6] = tested on: Chrysosporium keratinophilum; test: Agar plate disc-diffusion, antifungal, Chrysosporium keratinophilum; format: cell-based; settings: Sabouraud's dextrose agar, 72 hours
Description: as §1

[7] = B = concentration of comp. = 30,000 μL
[8] = C = concentration of comp. = 50,000 μL
[9] = A = concentration of comp. = 10,000 μL

SMILES: N/C(Cc1nc2ccccc2s1)=N\OC(=O)CSc1nnc(-c2ccc(Cl)cc2)o1 [compound 3, 2-(benzo[d]thiazol-2-yl)-N′-(2-(5-(4-chlorophenyl)-1,3,4-oxadiazol-2-ylthio)acetoxy)acetimidamide]
- inhibition zone, Bacillus Cereus, A ([1]; A =): 25 mm
- inhibition zone, Bacillus Cereus, B [1, 7]: 28 mm
- inhibition zone, Bacillus Cereus, C [1, 8]: 39 mm
- inhibition zone, Staphylococcus aureus, A [2, 9]: 33 mm
- inhibition zone, Staphylococcus aureus, B [2, 7]: 40 mm
- inhibition zone, Staphylococcus aureus, C [2, 8]: 52 mm
- inhibition zone, Pseudomonas aeruginosa, A [3, 9]: 23 mm
- inhibition zone, Pseudomonas aeruginosa, B [3, 7]: 27 mm
- inhibition zone, Pseudomonas aeruginosa, C [3, 8]: 43 mm
- inhibition zone, Escherichia coli, A [4, 9]: 25 mm
- inhibition zone, Escherichia coli, B [4, 7]: 34 mm
- inhibition zone, Escherichia coli, C [4, 8]: 47 mm
- inhibition zone, Aspergillus flavus, A [5, 9]: 24 mm
- inhibition zone, Aspergillus flavus, B [5, 7]: 29 mm
- inhibition zone, Aspergillus flavus, C [5, 8]: 41 mm
- inhibition zone, Chrysosporium keratinophilum, A [6, 9]: 26 mm
- inhibition zone, Chrysosporium keratinophilum, B [6, 7]: 31 mm
- inhibition zone, Chrysosporium keratinophilum, C [6, 8]: 49 mm
- melting point: 157 to 158 °C
